Source: patent publication US20250163104A1, “MACROCYCLIC IMMUNOMODULATORS” (priority 2021, published 2025)
*1 amine or outer side, *2 acyl side, *3 side chain or, on linkers, in order; H or OH if unused. Where a SMILES comes first, the peptide text is derived from it. Bridges are numbered along the chain shown (N, C = ends). [ ]: non-standard residue; d: D form. The star is where a group is joined. ξ: configuration not given here. Bip(4'-NHAc) = CC(=O)Nc1ccc(-c2ccc(C[C@H](N)C(=O)O)cc2)cc1; X10 = CCc1ccccc1-c1ccc(C[C@H](N[*:1])C(=O)[*:2])cc1; Phe(3-CF3) = N[C@@H](Cc1cccc(C(F)(F)F)c1)C(=O)O; Ala(morpholin-4-yl) = N[C@@H](CN1CCOCC1)C(=O)O; Phe(4-COOH) = N[C@@H](Cc1ccc(C(=O)O)cc1)C(=O)O; X5 = O=C([C@H](Cc1ccc2ncccc2c1)N[*:1])[*:2]; Bip = N[C@@H](Cc1ccc(-c2ccccc2)cc1)C(=O)O; Phe(3-Me) = Cc1cccc(C[C@H](N)C(=O)O)c1; Phe(4-F) = N[C@@H](Cc1ccc(F)cc1)C(=O)O; Val(3-OH) = CC(C)(O)[C@H](N)C(=O)O; 4Pal = N[C@@H](Cc1ccncc1)C(=O)O; Cha = N[C@@H](CC1CCCCC1)C(=O)O; Cit = NC(=O)NCCC[C@H](N)C(=O)O; Thr(3ξ) = CC(O)[C@H](N)C(=O)O; Tle = CC(C)(C)[C@H](N)C(=O)O; Carboxymethyl = O=C(O)C*; Orn = NCCC[C@H](N)C(=O)O; Dab = NCC[C@H](N)C(=O)O; Dap = NC[C@H](N)C(=O)O

Molecular target: T1, human PD-1 / PD-L1-Ig binding on Jurkat cell line over-expressing human PD-1 (Jurkat-PD-1) (Homo sapiens, UniProt Q15116)
T1 construct: expressed in transfected cells; host or cells: Jurkat
Assay: Jurkat-PD-1 Cell Binding High-Content Screening Assay (CBA)
Format: cell-based
Conditions: Jurkat-PD-1 cells, PE-labeled PD-L1-Ig 20 nM final; read-out: Jurkat HPD1_PDL1 IC50
In short: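 Binding of fluorescent PD-L1-Ig (phycoerythrin linked via the Ig tag, 20 nM final) to PD-1-overexpressing Jurkat cells was imaged after a 2 h, 37° C compound pretreatment and 1 hour ligand incubation.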

T1 sequence (Q15116 25-288): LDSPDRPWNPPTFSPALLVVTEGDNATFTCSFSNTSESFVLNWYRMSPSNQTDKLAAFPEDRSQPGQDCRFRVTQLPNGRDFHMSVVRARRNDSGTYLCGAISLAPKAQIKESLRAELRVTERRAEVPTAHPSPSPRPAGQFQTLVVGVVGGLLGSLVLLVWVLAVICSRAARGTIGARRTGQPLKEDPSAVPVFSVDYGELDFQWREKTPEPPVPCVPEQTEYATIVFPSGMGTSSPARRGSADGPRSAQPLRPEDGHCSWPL

| SMILES | IC50 [nM] |
| --- | --- |
| CC(C)C[C@H]1NC(=O)[C@H](CCCN)NC(=O)[C@H](CCCNC(N)=O)NC(=O)[C@H](Cc2ccc(-c3ccccc3)cc2)NC(=O)[C@H](C(C)C)NC(=O)[C@H](Cc2c[nH]c3ccccc23)NC(=O)[C@H](CC(=O)O)NC(=O)[C@H](CC(=O)O)NC(=O)[C@H](CN)NC(=O)CSC[C@@H](C(=O)N[C@@H](C)C(N)=O)NC(=O)[C@H]([C@@H](C)O)NC(=O)[C@H](C(C)C)NC(=O)[C@H](CC2CCCCC2)NC(=O)[C@H](CCN)NC1=O [Compound 2120] ({CH2CO}-[Dap]DDWV[Bip][Cit][Orn][dL][Dab][Cha]VTCA-NH2; thioether N-14) | 964 |
| CC[C@H](C)[C@@H]1NC(=O)[C@H](Cc2ccc(-c3ccccc3)cc2)NC(=O)[C@H](C(C)C)NC(=O)[C@H](Cc2c[nH]c3ccccc23)NC(=O)[C@H](CC(=O)O)NC(=O)[C@H](Cc2ccc(OCC(=O)O)cc2)NC(=O)[C@H](Cc2ccc(OCC(=O)O)cc2)NC(=O)CSC[C@@H](C(=O)N[C@@H](C)C(N)=O)NC(=O)[C@H]([C@@H](C)O)NC(=O)[C@H](C(C)C)NC(=O)[C@H](Cc2ccccc2)NC(=O)[C@H](CCN)NC(=O)[C@@H](CC(C)C)NC(=O)[C@H](CCCN)NC1=O [Compound 1660] ({CH2CO}-Y(Carboxymethyl)Y(Carboxymethyl)DWV[Bip]I[Orn][dL][Dab]FVTCA-NH2; thioether N-14) | 20.6 |
| CC(=O)Nc1ccc(-c2ccc(C[C@@H]3NC(=O)[C@H](CN)NC(=O)CSC[C@@H](C(=O)N[C@@H](C)C(N)=O)NC(=O)[C@H]([C@@H](C)O)NC(=O)[C@H](C(C)C)NC(=O)[C@H](CC4CCCCC4)NC(=O)[C@H](CCN)NC(=O)[C@@H](CC(C)C)NC(=O)[C@H](CCCN)NC(=O)[C@H](CCCNC(N)=O)NC(=O)[C@H](Cc4ccc(-c5ccccc5)cc4)NC(=O)[C@H](C(C)C)NC(=O)[C@H](Cc4c[nH]c5ccccc45)NC(=O)[C@H](CC(=O)O)NC3=O)cc2)cc1 [Compound 2124] ({CH2CO}-[Dap][Bip(4'-NHAc)]DWV[Bip][Cit][Orn][dL][Dab][Cha]VTCA-NH2; thioether N-14) | 22.6 |
| Cc1cccc(C[C@@H]2NC(=O)[C@H](CC(=O)O)NC(=O)[C@H](Cc3ccc(F)cc3)NC(=O)[C@H](Cc3ccncc3)NC(=O)CSC[C@@H](C(=O)N[C@@H](CCN)C(N)=O)NC(=O)[C@H](Cc3c[nH]cn3)NC(=O)[C@H](C(C)(C)O)NC(=O)[C@H](CC3CCCCC3)NC(=O)[C@H](CCN)NC(=O)[C@@H](CC(C)C)NC(=O)[C@H](CCCN)NC(=O)[C@H](Cc3ccc(OCC(=O)O)cc3)NC(=O)[C@H](Cc3ccc(-c4ccccc4)cc3)NC(=O)[C@H](Cc3ccc(OCC(=O)O)cc3)NC2=O)c1 [Compound 2672] ({CH2CO}-[4Pal][Phe(4-F)]D[Phe(3-Me)]Y(Carboxymethyl)[Bip]Y(Carboxymethyl)[Orn][dL][Dab][Cha][Val(3-OH)]HC[Dab]-NH2; thioether N-14) | 488 |
| CC(C)C[C@@H]1NC(=O)[C@H](Cc2c[nH]c3ccccc23)NC(=O)[C@H](CC(=O)O)NC(=O)[C@H](Cc2ccncc2)NC(=O)[C@H](Cc2ccc(OCC(=O)O)cc2)NC(=O)CSC[C@@H](C(=O)NCC(N)=O)NC(=O)[C@H](CO)NC(=O)[C@H](C(C)C)NC(=O)[C@H](CC2CCCCC2)NC(=O)[C@H](CC(N)=O)NC(=O)[C@@H](CC(C)C)NC(=O)[C@H](CCCN)NC(=O)[C@H](C(C)C)NC(=O)[C@H](Cc2ccc(-c3ccccc3)cc2)NC1=O [Compound 1338] ({CH2CO}-Y(Carboxymethyl)[4Pal]DWL[Bip]V[Orn][dL]N[Cha]VSCG-NH2; thioether N-14) | 38 |
| CC(C)C[C@H]1NC(=O)[C@H](CCCN)NC(=O)[C@H](CCC(=O)O)NC(=O)[C@H](Cc2ccc(-c3ccccc3)cc2)NC(=O)[C@H](C(C)C)NC(=O)[C@H](Cc2c[nH]c3ccccc23)NC(=O)[C@H](CC(=O)O)NC(=O)[C@H](Cc2ccc3ncccc3c2)NC(=O)[C@H](CN)NC(=O)CSC[C@@H](C(=O)N[C@@H](C)C(N)=O)NC(=O)[C@H]([C@@H](C)O)NC(=O)[C@H](C(C)C)NC(=O)[C@H](CC2CCCCC2)NC(=O)[C@H](CCN)NC1=O [Compound 2177] ({CH2CO}-[Dap][X5]DWV[Bip]E[Orn][dL][Dab][Cha]VTCA-NH2; thioether N-14) | 128 |

Now those with a lower IC50, led by results:

| IC50 [nM] | SMILES |
| --- | --- |
| 18.7 | CC(C)C[C@H]1NC(=O)[C@H](CCCN)NC(=O)[C@H](CCCNC(N)=O)NC(=O)[C@H](Cc2ccc(-c3ccccc3)cc2)NC(=O)[C@H](C(C)C)NC(=O)[C@H](Cc2c[nH]c3ccccc23)NC(=O)[C@H](CC(=O)O)NC(=O)[C@H](Cc2ccc3ccncc3c2)NC(=O)[C@H](CN)NC(=O)CSC[C@@H](C(=O)N[C@@H](C)C(N)=O)NC(=O)[C@H]([C@@H](C)O)NC(=O)[C@H](C(C)C)NC(=O)[C@H](CC2CCCCC2)NC(=O)[C@H](CCN)NC1=O [Compound 2117] |
| 18.4 | Cc1cccc(C[C@@H]2NC(=O)[C@H](CC(=O)O)NC(=O)[C@H](Cc3ccc(C(=O)O)cc3)NC(=O)[C@H](Cc3ccncc3)NC(=O)CSC[C@@H](C(N)=O)NC(=O)[C@H]([C@@H](C)O)NC(=O)[C@H](C(C)C)NC(=O)[C@H](CC3CCCCC3)NC(=O)[C@H](CCN)NC(=O)[C@@H](CC(C)C)NC(=O)[C@H](CCCN)NC(=O)[C@H](C(C)C)NC(=O)[C@H](Cc3ccc(-c4ccccc4)cc3)NC(=O)[C@H](C(C)C)NC2=O)c1 [Compound 1548] ({CH2CO}-[4Pal][Phe(4-COOH)]D[Phe(3-Me)]V[Bip]V[Orn][dL][Dab][Cha]VTC-NH2; thioether N-14) |
| 17.3 | CC(C)C[C@H]1NC(=O)[C@H](CCCN)NC(=O)[C@H](C(C)C)NC(=O)[C@H](Cc2ccc(-c3ccccc3)cc2)NC(=O)[C@H](C(C)C)NC(=O)[C@H](Cc2c[nH]c3ccccc23)NC(=O)[C@H](CC(=O)O)NC(=O)[C@H](Cc2ccc(O)cc2)NC(=O)[C@H](CCC(N)=O)NC(=O)CSC[C@@H](C(=O)N[C@@H](C)C(N)=O)NC(=O)[C@H](C(C)O)NC(=O)[C@H](C(C)C)NC(=O)[C@H](CC2CCCCC2)NC(=O)[C@H](CCN)NC1=O (stereo partly drawn) [Compound 2525] ({CH2CO}-QYDWV[Bip]V[Orn][dL][Dab][Cha]V[Thr(3ξ)]CA-NH2; thioether N-14) |
| 16.8 | CC(C)C[C@H]1NC(=O)[C@H](CCCN)NC(=O)[C@H](CCC(=O)O)NC(=O)[C@H](Cc2ccc(-c3ccccc3)cc2)NC(=O)[C@H](C(C)C)NC(=O)[C@H](Cc2cccc(C(F)(F)F)c2)NC(=O)[C@H](CC(=O)O)NC(=O)[C@H](Cc2ccc(OCC(=O)O)cc2)NC(=O)[C@H](Cc2cccnc2)NC(=O)CSC[C@@H](C(=O)N[C@@H](C)C(N)=O)NC(=O)[C@H]([C@@H](C)O)NC(=O)[C@H](C(C)C)NC(=O)[C@H](CC2CCCCC2)NC(=O)[C@H](CCN)NC1=O [Compound 1502] |
| 9.4 | Cc1cccc(C[C@@H]2NC(=O)[C@H](CC(=O)O)NC(=O)[C@H](Cc3ccc(C(=O)O)cc3)NC(=O)[C@H](Cc3ccncc3)NC(=O)CSC[C@@H](C(=O)N[C@@H](CCN)C(N)=O)NC(=O)[C@H](CO)NC(=O)[C@H](C(C)(C)C)NC(=O)[C@H](CC3CCCCC3)NC(=O)[C@H](CCN)NC(=O)[C@@H](CC(C)C)NC(=O)[C@H](CCCN)NC(=O)[C@H](Cc3ccc(OCC(=O)O)cc3)NC(=O)[C@H](Cc3ccc(-c4ccccc4)cc3)NC(=O)[C@H](Cc3ccc(OCC(=O)O)cc3)NC2=O)c1 [Compound 2294] ({CH2CO}-[4Pal][Phe(4-COOH)]D[Phe(3-Me)]Y(Carboxymethyl)[Bip]Y(Carboxymethyl)[Orn][dL][Dab][Cha][Tle]SC[Dab]-NH2; thioether N-14) |
| 8.8 | CC(C)C[C@H]1NC(=O)[C@H](CCCN)NC(=O)[C@H](C(C)C)NC(=O)[C@H](Cc2ccc(-c3ccccc3)cc2)NC(=O)[C@H](C(C)C)NC(=O)[C@H](Cc2c[nH]c3ccccc23)NC(=O)[C@H](CC(=O)O)NC(=O)[C@H](Cc2ccc(OCC(=O)O)cc2)NC(=O)[C@H](Cc2ccc(OCC(=O)O)cc2)NC(=O)CSC[C@@H](C(=O)N[C@@H](C)C(N)=O)NC(=O)[C@H](CCCCN)NC(=O)[C@H](C(C)C)NC(=O)[C@H](CC2CCCCC2)NC(=O)[C@H](CCN)NC1=O [Compound 1746] ({CH2CO}-Y(Carboxymethyl)Y(Carboxymethyl)DWV[Bip]V[Orn][dL][Dab][Cha]VKCA-NH2; thioether N-14) |
| 5.8 | CC[C@H](C)[C@@H]1NC(=O)[C@H](Cc2ccc(-c3ccccc3)cc2)NC(=O)[C@H](C(C)C)NC(=O)[C@H](Cc2c[nH]c3ccccc23)NC(=O)[C@H](CC(=O)O)NC(=O)[C@H](Cc2ccc(C(=O)O)cc2)NC(=O)[C@H](Cc2ccncc2)NC(=O)CSC[C@@H](C(=O)N[C@@H](C)C(N)=O)NC(=O)[C@H]([C@@H](C)O)NC(=O)[C@H](C(C)C)NC(=O)[C@H](CC(C)C)NC(=O)[C@H](CCN)NC(=O)[C@@H](CC(C)C)NC(=O)[C@H](CCCN)NC1=O [Compound 1055] ({CH2CO}-[4Pal][Phe(4-COOH)]DWV[Bip]I[Orn][dL][Dab]LVTCA-NH2; thioether N-14) |
| 5.7 | CCc1ccccc1-c1ccc(C[C@@H]2NC(=O)[C@H](Cc3cccc(C(F)(F)F)c3)NC(=O)[C@H](CC(=O)O)NC(=O)[C@H](Cc3ccc(C(=O)O)cc3)NC(=O)[C@H](CN3CCOCC3)NC(=O)CSC[C@@H](C(=O)N[C@@H](CCN)C(N)=O)NC(=O)[C@H](CCC(=O)O)NC(=O)[C@H](C(C)C)NC(=O)[C@H](CC3CCCCC3)NC(=O)[C@H](CCN)NC(=O)[C@@H](CC(C)C)NC(=O)[C@H](CCCN)NC(=O)[C@H](Cc3ccc(C(=O)O)cc3)NC(=O)[C@H](Cc3ccc(-c4ccccc4)cc3)NC2=O)cc1 [Example 2734] ({CH2CO}-[Ala(morpholin-4-yl)][Phe(4-COOH)]D[Phe(3-CF3)][X10][Bip][Phe(4-COOH)][Orn][dL][Dab][Cha]VEC[Dab]-NH2; thioether N-14) |
